The record followed here is ChEMBL document CHEMBL4699611, “Synthesis and evaluation of HIF-1α inhibitory activities of novel panaxadiol derivatives” (Bioorg Med Chem Lett, 2020).

What all share (format): cell-based
For data set [1], the target named is Hypoxia-inducible factor 1-alpha (Homo sapiens, UniProt Q16665). Put plainly: Inhibition of hypoxia-induced HIF1alpha transcriptional activity in human Hep3B cells co-transfected with luciferase reporter plasmid containing six copies of HREs and pRL-CMV vector assessed as reduction in luciferase activity incubated for 24 hrs under hypoxic condition by HRE-dependent dual luciferase reporter gene assay. Background: Reporter assays use an easily measured gene product as a stand-in for the process of interest.

The subject of data set [2] is Hep 3B2. In words: Cytotoxicity against human Hep3B cells assessed as reduction in cell viability incubated for 24 hrs under normaxic condition by MTT assay. Background: Tetrazolium assays rely on reduction of a dye to a coloured formazan, in cell work by metabolically active cells.
The test system of data set [3] is Hep 3B2. Put plainly: Cytotoxicity against human Hep3B cells assessed as reduction in cell viability at 30 uM incubated for 24 hrs in presence of 20% O2 by MTT assay. The following applies: hep 3b2, 24 h.

For the compound `CC1(C)CCC[C@](C)([C@H]2CC[C@]3(C)[C@@H]2[C@H](OC(=O)Cn2nnnc2-c2ccc(Cl)cc2)C[C@@H]2[C@@]4(C)CCC(=O)C(C)(C)[C@@H]4CC[C@]23C)O1`, the IC50 (commonly the point on the concentration scale where inhibition reaches its midpoint) in data set [1] amounted to 12.4 µM; with Hep 3B2 [2] it was 42.9 µM.

With `CC1(C)CCC[C@](C)([C@H]2CC[C@]3(C)[C@@H]2[C@H](O)C[C@@H]2[C@@]4(C)CC(=C\c5ccc(F)cc5)/C(=N\NC(=N)N)C(C)(C)[C@@H]4CC[C@]23C)O1`, the IC50 in data set [1] was 4.8 µM; with Hep 3B2 [2] it was greater than 100 µM.

Take `CC1(C)CCC[C@](C)([C@H]2CC[C@]3(C)[C@@H]2[C@H](OC(=O)Cn2nnnc2-c2ccccc2)C[C@@H]2[C@@]4(C)CCC(=O)C(C)(C)[C@@H]4CC[C@]23C)O1`: the IC50 (in data set [1]; with Hep 3B2 [2]) was greater than 100 µM throughout.

For the compound `CC1(C)CCC[C@](C)([C@H]2CC[C@]3(C)[C@@H]2[C@H](O)C[C@@H]2[C@@]4(C)CC(=C\c5ccccc5F)/C(=N\NC(N)=O)C(C)(C)[C@@H]4CC[C@]23C)O1`, the figures for the IC50 (in data set [1]; in the data set on Hep 3B2 [2]) were 5.9 µM and 5.6 µM, respectively.

As to `CC1(C)CCC[C@](C)([C@H]2CC[C@]3(C)[C@@H]2[C@H](O)C[C@@H]2[C@@]4(C)CC/C(=N\Nc5ccccc5Cl)C(C)(C)[C@@H]4CC[C@]23C)O1`, the concentration for half-maximal inhibition (IC50) (in data set [1]; with Hep 3B2 [2]) was greater than 100 µM in each case.

Take `CC1(C)CCC[C@](C)([C@H]2CC[C@]3(C)[C@@H]2[C@H](O)C[C@@H]2[C@@]4(C)CC/C(=N\Nc5ccc(F)cc5)C(C)(C)[C@@H]4CC[C@]23C)O1`: the 50% inhibitory concentration (IC50) in data set [1] was 21.4 µM; in the data set with Hep 3B2 [2], greater than 100 µM.

Turning to `CC1(C)CCC[C@](C)([C@H]2CC[C@]3(C)[C@@H]2[C@H](O)C[C@@H]2[C@@]4(C)CC/C(=N\Nc5cccc([N+](=O)[O-])c5)C(C)(C)[C@@H]4CC[C@]23C)O1`, the results for the half-inhibitory concentration (IC50) (in data set [1]; with Hep 3B2 [2]) were 61.2 µM and greater than 100 µM, respectively.

Turning to `COc1ccc(-c2nnnn2CC(=O)O[C@@H]2C[C@@H]3[C@@]4(C)CCC(=O)C(C)(C)[C@@H]4CC[C@@]3(C)[C@]3(C)CC[C@H]([C@@]4(C)CCCC(C)(C)O4)[C@@H]23)cc1`, the half-maximal inhibitory concentration (IC50) (in data set [1]; in the data set with Hep 3B2 [2]) was greater than 100 µM throughout.

Regarding `COc1ccc(/C=C2\C[C@]3(C)[C@H]4C[C@@H](O)[C@@H]5[C@@H]([C@@]6(C)CCCC(C)(C)O6)CC[C@@]5(C)[C@]4(C)CC[C@H]3C(C)(C)\C2=N\NC(=N)N)cc1`, the IC50 in data set [1] stood at 5.8 µM; in the data set on Hep 3B2 [2], 6.1 µM.

For the compound `CC1(C)CCC[C@](C)([C@H]2CC[C@]3(C)[C@@H]2[C@H](OC(=O)CNc2nnn[nH]2)C[C@@H]2[C@@]4(C)CCC(=O)C(C)(C)[C@@H]4CC[C@]23C)O1`, the figures for the IC50 (in data set [1]; in the data set with Hep 3B2 [2]) were 36.2 µM and greater than 100 µM, respectively.

In the case of `Cc1ccc(/C=C2\C[C@]3(C)[C@H]4C[C@@H](O)[C@@H]5[C@@H]([C@@]6(C)CCCC(C)(C)O6)CC[C@@]5(C)[C@]4(C)CC[C@H]3C(C)(C)\C2=N\NC(N)=S)cc1`, the half-maximal inhibitory concentration (IC50) in data set [1] came out at 6.1 µM; in the data set with Hep 3B2 [2], 43.1 µM.

With `CC1(C)CCC[C@](C)([C@H]2CC[C@]3(C)[C@@H]2[C@H](O)C[C@@H]2[C@@]4(C)CC/C(=N\Nc5cccc(F)c5)C(C)(C)[C@@H]4CC[C@]23C)O1`, the IC50 in data set [1] is 67 µM; with Hep 3B2 [2], greater than 100 µM.

Turning to `CC1(C)CCC[C@](C)([C@H]2CC[C@]3(C)[C@@H]2[C@H](O)C[C@@H]2[C@@]4(C)CC/C(=N\Nc5ccc(Cl)cc5)C(C)(C)[C@@H]4CC[C@]23C)O1`, the IC50 was 26 µM in data set [1] and greater than 100 µM in the data set on Hep 3B2 [2].

In the case of `Cc1ccc(N/N=C2\CC[C@]3(C)[C@H]4C[C@@H](O)[C@@H]5[C@@H]([C@@]6(C)CCCC(C)(C)O6)CC[C@@]5(C)[C@]4(C)CC[C@H]3C2(C)C)cc1`, the results for the IC50 (in data set [1]; in the data set on Hep 3B2 [2]) were 7.1 µM and greater than 100 µM, respectively.

Regarding `Cc1cccc(N/N=C2\CC[C@]3(C)[C@H]4C[C@@H](O)[C@@H]5[C@@H]([C@@]6(C)CCCC(C)(C)O6)CC[C@@]5(C)[C@]4(C)CC[C@H]3C2(C)C)c1`, the half-inhibitory concentration (IC50) in data set [1] was 56.5 µM; in the data set with Hep 3B2 [2] it was greater than 100 µM.

`CC1(C)CCC[C@](C)([C@H]2CC[C@]3(C)[C@@H]2[C@H](O)C[C@@H]2[C@@]4(C)CC/C(=N\Nc5ccc(Cl)cc5Cl)C(C)(C)[C@@H]4CC[C@]23C)O1`: in data set [1], the IC50 is 3.7 µM and the inhibition entry was “Dose-dependent effect”. In the data set with Hep 3B2 [2], the IC50 was greater than 100 µM. In addition, the Activity result in the data set with Hep 3B2 [3] is on record as “Non-Toxic”.

Regarding `CC1(C)CCC[C@](C)([C@H]2CC[C@]3(C)[C@@H]2[C@H](OC(=O)CNc2cccc(-c4nnn[nH]4)c2)C[C@@H]2[C@@]4(C)CCC(=O)C(C)(C)[C@@H]4CC[C@]23C)O1`, the IC50 (in data set [1]; in the data set with Hep 3B2 [2]) was greater than 100 µM in each case.

As to `CC1(C)CCC[C@](C)([C@H]2CC[C@]3(C)[C@@H]2[C@H](O)C[C@@H]2[C@@]4(C)CC(=C\c5ccc(F)cc5)/C(=N\NC(N)=O)C(C)(C)[C@@H]4CC[C@]23C)O1`, the concentration for half-maximal inhibition (IC50) in data set [1] was 11.7 µM; in the data set on Hep 3B2 [2] it was greater than 100 µM.

Consider `Cc1ccccc1N/N=C1\CC[C@]2(C)[C@H]3C[C@@H](O)[C@@H]4[C@@H]([C@@]5(C)CCCC(C)(C)O5)CC[C@@]4(C)[C@]3(C)CC[C@H]2C1(C)C`, for which the IC50 in data set [1] is 24.9 µM; in the data set with Hep 3B2 [2], greater than 100 µM.

Consider `CC1(C)CCC[C@](C)([C@H]2CC[C@]3(C)[C@@H]2[C@H](O)C[C@@H]2[C@@]4(C)CC(=C\c5ccc(O)cc5)/C(=N\NC(=N)N)C(C)(C)[C@@H]4CC[C@]23C)O1`, for which the half-inhibitory concentration (IC50) is 6.2 µM in data set [1] and 6.3 µM in the data set with Hep 3B2 [2].

As for `Cc1ccc(/C=C2\C[C@]3(C)[C@H]4C[C@@H](O)[C@@H]5[C@@H]([C@@]6(C)CCCC(C)(C)O6)CC[C@@]5(C)[C@]4(C)CC[C@H]3C(C)(C)\C2=N\NC(=N)N)cc1`, the half-maximal inhibitory concentration (IC50) in data set [1] was found to be 37.7 µM; in the data set with Hep 3B2 [2], 11.3 µM.

Consider `CC1(C)CCC[C@](C)([C@H]2CC[C@]3(C)[C@@H]2[C@H](O)C[C@@H]2[C@@]4(C)CC(=C\c5ccc(F)cc5)/C(=N\NC(N)=S)C(C)(C)[C@@H]4CC[C@]23C)O1`, for which the IC50 in data set [1] is 9 µM; in the data set on Hep 3B2 [2] it was 24.1 µM.

`CC1(C)CCC[C@](C)([C@H]2CC[C@]3(C)[C@@H]2[C@H](O)C[C@@H]2[C@@]4(C)CC/C(=N\Nc5ccc(F)cc5F)C(C)(C)[C@@H]4CC[C@]23C)O1`: the IC50 was 12.8 µM in data set [1] and greater than 100 µM in the data set on Hep 3B2 [2].

As for `CC1(C)CCC[C@](C)([C@H]2CC[C@]3(C)[C@@H]2[C@H](O)C[C@@H]2[C@@]4(C)CC/C(=N\Nc5ccccc5F)C(C)(C)[C@@H]4CC[C@]23C)O1`, the IC50 was 10.1 µM in data set [1] and greater than 100 µM with Hep 3B2 [2].

Turning to `Cc1ccc(/C=C2\C[C@]3(C)[C@H]4C[C@@H](O)[C@@H]5[C@@H]([C@@]6(C)CCCC(C)(C)O6)CC[C@@]5(C)[C@]4(C)CC[C@H]3C(C)(C)\C2=N\NC(N)=O)cc1`, the IC50 in data set [1] worked out at 9.8 µM; in the data set on Hep 3B2 [2], 4.1 µM.

Regarding `CC1(C)CCC[C@](C)([C@H]2CC[C@]3(C)[C@@H]2[C@H](O)C[C@@H]2[C@@]4(C)CC/C(=N\Nc5cccc(Cl)c5)C(C)(C)[C@@H]4CC[C@]23C)O1`, the IC50 was 36.7 µM in data set [1] and greater than 100 µM in the data set with Hep 3B2 [2].

For `CC1(C)CCC[C@](C)([C@H]2CC[C@]3(C)[C@@H]2[C@H](O)C[C@@H]2[C@@]4(C)CC(=C\c5ccc(Cl)cc5)/C(=N\NC(N)=S)C(C)(C)[C@@H]4CC[C@]23C)O1`, the IC50 (in data set [1]; in the data set with Hep 3B2 [2]) was greater than 100 µM in each case.

`CC1(C)CCC[C@](C)([C@H]2CC[C@]3(C)[C@@H]2[C@H](O)C[C@@H]2[C@@]4(C)CC[C@H](O)C(C)(C)[C@@H]4CC[C@]23C)O1` [PANAXADIOL]: the IC50 in data set [1] was determined as 9.1 µM; with Hep 3B2 [2], 31.7 µM.

With `CC1(C)CCC[C@](C)([C@H]2CC[C@]3(C)[C@@H]2[C@H](OC(=O)Cn2nnnc2-c2ccc4c(c2)OCO4)C[C@@H]2[C@@]4(C)CCC(=O)C(C)(C)[C@@H]4CC[C@]23C)O1`, the IC50 in data set [1] is 40.9 µM; in the data set on Hep 3B2 [2], greater than 100 µM.

As to `CC1(C)CCC[C@](C)([C@H]2CC[C@]3(C)[C@@H]2[C@H](O)C[C@@H]2[C@@]4(C)CC(=C\c5cccc(F)c5)/C(=N\NC(N)=O)C(C)(C)[C@@H]4CC[C@]23C)O1`, the concentration for half-maximal inhibition (IC50) in data set [1] came to 3.5 µM; in the data set on Hep 3B2 [2] it was 5.2 µM.

Consider `CC1(C)CCC[C@](C)([C@H]2CC[C@]3(C)[C@@H]2[C@H](O)C[C@@H]2[C@@]4(C)CC(=C\c5ccc(Cl)cc5)/C(=N\NC(N)=O)C(C)(C)[C@@H]4CC[C@]23C)O1`, for which the IC50 in data set [1] came to 5.5 µM; in the data set with Hep 3B2 [2], 11.3 µM.
